# Measurements published in PMC11272598, “RG7774 (Vicasinabin), an orally bioavailable cannabinoid receptor 2 (CB2R) agonist, decreases retinal vascular permeability, leukocyte adhesion, and ocular inflammation in animal models” (Frontiers in Pharmacology, 2024).
# How the values were obtained:
# [1] = Kinetic lyophilization solubility assay (LYSA); assay type: physicochemical; details: aqueous buffer, 0.05 M PBS pH 6.5
# Protocol: RG7774 samples were prepared in duplicate from 10 mM DMSO stock solutions. DMSO was evaporated for 1 h using a centrifugal vacuum evaporator (Genevac Technologies, UK) and the residue was dissolved in 0.05 M PBS (pH 6.5), stirred for 1 h, and shaken for 2 h. Solutions were filtered 12 h later using a microtiter filter plate (MSDV N65; Merck Millipore, MA, USA). The filtrate and its 1:10 dilution were analyzed by direct ultraviolet (UV) measurement or high-performance liquid chromatography with UV spectroscopy (HPLC-UV). […] The measurement range for a compound with molecular weight 500 was 0 to 666 μg/mL.
# [2] = Aqueous stability assay (ASTA); assay type: physicochemical; details: 37 °C, 2 h
# Protocol: Aqueous solutions of RG7774 were prepared at 5 different pHs (pH 1-10) from DMSO stock solutions, added to incubation plates and shaken for 10 min at 37 °C. Solutions were transferred to a filter plate (Millipore MSGVN2250, pore size 0.22 μm) and filtered into V-bottom plates (ABGene, AB-0800) prior to heat-sealing. The procedure was repeated, increasing the 37 °C incubation time by 2 h. Samples were analyzed by HPLC at 0 and 2 h. A compound was classified as unstable if < 90% of the initial concentration was detected after 2 h.
# [3] = Ocular tissue PK in rats; assay type: in vivo; details: 26 days of oral administration, 3 and 30 mg/kg/day
# Protocol: The plasma PK profile of RG7774 was assessed in adult male C57BL/6J mice and female Wistar rats (Charles River, Cologne, Germany) housed in a controlled environment (temperature, humidity, and 12 h light/dark cycle) with unrestricted access to food and water. The ocular PK profile of RG7774 was assessed in adult female […] rats (Charles River, Mattawan, MI, United States) housed in a controlled environment (21°C–22°C temperature, 40%–60%, humidity, and 12 h light/dark cycle) with unrestricted access to food and water and conducted according to local regulations by EyeCRO (Ann Arbor, MI, United States).
# […] […] Samples were collected from the tail vein or via heart puncture (terminal) and prepared within 30 min of collection by centrifugation at 3,000 g for 5 min at 4°C and were immediately frozen. RG7774 concentrations in plasma and homogenized tissues were determined using LC-MS/MS. PK parameters were estimated by non-compartmental analysis of plasma data using Phoenix WinNonlin software (Certara, Princeton, NJ, United States).
# [4] = system: STZ-induced diabetes retinal vascular permeability; experiment: Rats with STZ-induced type 1 diabetes (fluorophotometry); assay type: in vivo, Long Evans rats; details: STZ diabetic rats, 10 mg/kg daily oral gavage, 6 weeks after STZ, normalized to plasma
# Protocol: Twenty-six male Long Evans rats (outbred) (Charles River Laboratories, Sulzfeld, Germany) aged 7 weeks and weighing 250–270 g at the beginning of the study were housed in individually ventilated cages with a maximum density of n = 2 rats per cage with the same sex and monitored daily. Bedding for diabetic animals was changed daily. The room was kept at 20°C–24°C with 50%–60% humidity and a 12/12 h light-dark cycle. Rats received a standard diet and water ad libidum, in addition to soaked food or soft diet. For animal welfare and for dosing purposes, animals were weighed every other day. Rats were sacrificed if weight loss was greater than 20% of the original weight, or more than 20% of body gain within 1 week.
# Animals were fasted overnight and injected the following morning with IP 60 mg/kg (60 mg/mL at 1 mL/kg) STZ as reported previously ([Kim et al., 2007]; [Furman, 2015]) in 0.05 M sodium citrate buffer (pH 4.5). […]
# To quantify fluorotron measurements, raw data were generated, exported as .txt files, and plotted using Microsoft Excel. The average AUC was calculated for 5 steps in the region of the scans corresponding to the vitreous peak. […] All data are expressed as mean ± SEM ng/mL ratios of vitreous:plasma fluorescein. Fluorophotometry data were analyzed using 2-way ANOVA followed by Newman–Keuls multiple comparisons test. […]
smiles,measurement,setting,value
"Cn1nnnc1Cn1nnc2c(N3CC[C@H](O)C3)nc(C(C)(C)C)nc21 [RG7774, (S)-1-(5-tert-butyl-3-[(1-methyl-1H-tetrazol-5-yl)methyl]-3H-[1,2,3]triazolo[4,5-d]pyrimidin-7-yl)pyrrolidin-3-ol]",solubility kinetic,[1],0.285 mg/mL
same,Chemical stability in aqueous media at pH 1–10,[2],stable
same,concentrations in retina and choroid/retinal pigment epithelium tissues relative to plasma,[3],in the same range as the total plasma concentration
same,exposure in the vitreous humor relative to plasma,[3],closer to that found in free plasma
same,vitreous fluorescein,[4],25.6 ng/mL
